Data from patent publication US20050143463A1, “Method of inhibiting angiogenesis” (THE QUEEN ELIZABETH HOSPITAL RESEARCH FOUNDATION INC., priority 2002, published 2005).
Read-outs that look alike come from different tables or passages of the source.

What was measured:
[1] = tested on: Human umbilical vein endothelial cells (HUVEC); assay: HUVEC proliferation assay (tritiated thymidine uptake); type: cell-based; conditions: for inhibition of HUVEC proliferation in vitro, dose dependent (in words): dose dependent manner
Protocol: Human umbilical vein endothelial cells (HUVEC) were seeded in 96-well flat bottomed tissue culture plates at a density of 2.5-5×10^4 cells/well and treated with various dilutions of agents. Cells were cultured in RPMI medium containing 20% FCS, Penicillin/Streptomycin in a 5% CO2 atmosphere at 37° C. After 24 to 48 hours of incubation, cells were pulsed with 1 μCi of tritiated thymidine for 6 hours. The pulsed cells were trypsinised to detach from the wells and then harvested in a TOMTEC Cell Harvester onto glass fibre filters, which were dried and immersed in scintillation fluid and counted in a Wallac Microbeta scintillation counter. The results were reported as mean cpm±SD.

[2] = Aqueous solubility; type: physicochemical
[3] = 50 μM, tritiated thymidine uptake
[4] = 100 μM, tritiated thymidine uptake
[5] = 200 μM, tritiated thymidine uptake
[6] = 400 μM, tritiated thymidine uptake
[7] = 800 μM, tritiated thymidine uptake

CCC(C)CCCCCCCCCCC(=O)O (centres unmarked) [12-MTA, 12-methyltetradecanoic acid]
% Inhibition of HUVEC proliferation ([1]; 50 μM, percentage of control cells with no added agent (Table 1)): 13.3%
Average [1, 3]: 18781.3 cpm
Sample 1 [1, 3]: 19272 cpm
Sample 2 [1, 3]: 19942 cpm
Sample 3 [1, 3]: 17130 cpm
Average [1, 4]: 17593.0 cpm
Sample 1 [1, 4]: 20367 cpm
Sample 2 [1, 4]: 16963 cpm
Sample 3 [1, 4]: 15449 cpm
Average [1, 5]: 15707.7 cpm
Sample 1 [1, 5]: 18491 cpm
Sample 2 [1, 5]: 15435 cpm
Sample 3 [1, 5]: 13197 cpm
HUVEC proliferation (in words) ([1]; 400 μM concentration, tritiated thymidine uptake): inhibited
Average [1, 6]: 12104.7 cpm
Sample 1 [1, 6]: 12558 cpm
Sample 2 [1, 6]: 13837 cpm
Sample 3 [1, 6]: 9919 cpm
microscopic examination of the cells ([1]; 800 μM): appearance of apoptotic cells
Average [1, 7]: 9.0 cpm
Sample 1 [1, 7]: 11 cpm
Sample 2 [1, 7]: 7 cpm
Sample 3 [1, 7]: 9 cpm
inhibition at 50 µM ([1]; Homo sapiens, HUVEC, 50 μM, percentage of control cells with no added agent (Table 1)): 13%
inhibition at 100 µM ([1]; Homo sapiens, HUVEC, 100 μM, percentage of control cells with no added agent (Table 1)): 18.7%
inhibition at 200 µM ([1]; Homo sapiens, HUVEC, 200 μM, percentage of control cells with no added agent (Table 1)): 27.5%
inhibition at 400 µM ([1]; Homo sapiens, HUVEC, 400 μM concentration, percentage of control cells with no added agent (Table 3), read-out: Percentage inhibition of HUVEC proliferation): 32%
inhibition at 400 µM ([1]; Homo sapiens, HUVEC, 400 μM, percentage of control cells with no added agent (Table 1), read-out: % Inhibition of HUVEC proliferation): 44.1%
inhibition at 800 µM ([1]; Homo sapiens, HUVEC, 800 μM, percentage of control cells with no added agent (Table 1)): 99%
inhibition at 100 µM ([1]; Homo sapiens, HUVEC, 24 h, 100 μM 12-MTA, 24 hours (Table 2)): 24.8%
inhibition at 200 µM ([1]; Homo sapiens, HUVEC, 24 h, 200 μM 12-MTA, 24 hours (Table 2)): 30.2%
cell viability ([1]; concentrations between 50 to 400 μM): good viability
inhibition of HUVEC proliferation in vitro, dose dependent (in words) [1]: inhibited in a dose response manner
inhibition of HUVEC proliferation in vitro, dose dependent (in words) ([1]; listed as 12-methyl tetradecanoic acid): inhibit the proliferation
aqueous solubility [2]: poor
